Test results reported in PubChem BioAssay (NCI).
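Assay format: 96-well plates, 48-hour exposure. GI50: concentration for 50% inhibition of growth. TGI: concentration producing complete growth inhibition.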

Experiments:
Assay in all cases: NCI anticancer screen, dose series, 48 h
[1] = test system: K-562 leukemia
[2] = test system: CCRF-CEM leukemia
[3] = test system: MDA-MB-231 breast
[4] = test system: SK-OV-3 ovarian
[5] = test system: ACHN renal
[6] = test system: MOLT-4 leukemia
[7] = test system: A498 renal
[8] = test system: NCI-H522 lung
[9] = test system: OVCAR-4 ovarian
[10] = test system: UO-31 renal
[11] = test system: BT-549 breast
[12] = test system: U251 CNS
[13] = test system: HCT-116 colon
[14] = test system: T-47D breast
[15] = test system: HOP-92 NSCLC
[16] = test system: A549 NSCLC
[17] = test system: HL-60(TB) leukemia
[18] = test system: RXF 393 renal
[19] = test system: SW-620 colon
[20] = test system: NCI-H226 lung
[21] = test system: SK-MEL-28 melanoma
[22] = test system: IGROV1 ovarian
[23] = test system: SF-268 CNS
[24] = test system: SF-295 CNS
[25] = test system: M14 melanoma
[26] = test system: HCT-15 colon
[27] = test system: 786-0 renal
[28] = test system: NCI-H460 lung
[29] = test system: OVCAR-3 ovarian
[30] = test system: HS 578T breast
[31] = test system: UACC-62 melanoma
[32] = test system: DU-145 prostate
[33] = test system: SK-MEL-5 melanoma
[34] = test system: LOX IMVI melanoma
[35] = test system: TK-10 renal
[36] = test system: OVCAR-8 ovarian
[37] = test system: SNB-19 CNS
[38] = test system: HOP-62 NSCLC
[39] = test system: KM12 colon
[40] = test system: PC-3 prostate
[41] = test system: NCI-H23 lung
[42] = test system: UACC-257 melanoma
[43] = test system: HT29 colon
[44] = test system: SF-539 CNS
[45] = test system: EKVX NSCLC
[46] = test system: OVCAR-5 ovarian
[47] = test system: SN12C renal
[48] = test system: NCI/ADR-RES ovarian
[49] = test system: COLO 205 colon
[50] = test system: CAKI-1 renal
[51] = test system: MALME-3M melanoma
[52] = test system: MDA-MB-435
[53] = test system: MCF7 breast

How did the GI50 [1] turn out when COc1cc(/C=C2\CC3C4CCC5=CC(=O)CC[C@]5(C)C4CC[C@]3(C)C2=O)ccc1OCCCn1ccnc1 (stereo partly specified) was run?
Its GI50 is 2.69 µM.

What about the TGI [1] of the same molecule?
The TGI was 12.9 µM.

And the GI50 [2]?
The GI50 was 3.35 µM.

And the TGI [2]?
The TGI was 10 µM.

And the GI50 [3]?
Its GI50 is 5.04 µM.

And the TGI [3]?
Its TGI is 21 µM.

What about the GI50 [4] of the same molecule?
The GI50 was 15.7 µM.

What about the TGI [4] of the same molecule?
Its TGI is 30.2 µM.

What about the GI50 [5] of the same molecule?
Its GI50 is 10.2 µM.

And the TGI [5]?
Its TGI is 21.8 µM.

And the GI50 [6]?
The GI50 was 4.09 µM.

What about the TGI [6] of the same molecule?
Its TGI is 18.9 µM.

And the GI50 [7]?
The GI50 was 11.6 µM.

And the TGI [7]?
Its TGI is 23.9 µM.

And the GI50 [8]?
The GI50 was 3.8 µM.

And the TGI [8]?
Its TGI is 16.1 µM.

And the GI50 [9]?
Its GI50 is 12.4 µM.

And the TGI [9]?
Its TGI is greater than 100 µM.

And the GI50 [10]?
The GI50 was 4.36 µM.

What about the TGI [10] of the same molecule?
The TGI was 16.2 µM.

What about the GI50 [11] of the same molecule?
Its GI50 is 4.45 µM.

What about the TGI [11] of the same molecule?
Its TGI is 33.4 µM.

What about the GI50 [12] of the same molecule?
The GI50 was 9.09 µM.

And the TGI [12]?
Its TGI is 21.2 µM.

And the GI50 [13]?
Its GI50 is 2.7 µM.

And the TGI [13]?
Its TGI is 13.1 µM.

And the GI50 [14]?
The GI50 was 5.23 µM.

And the TGI [14]?
The TGI was 19 µM.

What about the GI50 [15] of the same molecule?
Its GI50 is 6.22 µM.

And the TGI [15]?
The TGI was 22.8 µM.

What about the GI50 [16] of the same molecule?
The GI50 was 5.32 µM.

What about the TGI [16] of the same molecule?
Its TGI is 21.7 µM.

And the GI50 [17]?
Its GI50 is 2.86 µM.

And the TGI [17]?
The TGI was 10.2 µM.

And the GI50 [18]?
The GI50 was 0.0969 µM.

What about the TGI [18] of the same molecule?
Its TGI is 6.94 µM.

What about the GI50 [19] of the same molecule?
Its GI50 is 8.23 µM.

What about the TGI [19] of the same molecule?
Its TGI is 23.1 µM.

And the GI50 [20]?
Its GI50 is 11.2 µM.

And the TGI [20]?
Its TGI is 27.5 µM.

And the GI50 [21]?
Its GI50 is 6.55 µM.

What about the TGI [21] of the same molecule?
Its TGI is 25.9 µM.

And the GI50 [22]?
The GI50 was 9.13 µM.

What about the TGI [22] of the same molecule?
The TGI was 29.5 µM.

And the GI50 [23]?
The GI50 was 13.6 µM.

And the TGI [23]?
The TGI was 34.4 µM.

What about the GI50 [24] of the same molecule?
Its GI50 is 2.47 µM.

What about the TGI [24] of the same molecule?
The TGI was 7.41 µM.

And the GI50 [25]?
The GI50 was 5.87 µM.

What about the TGI [25] of the same molecule?
The TGI was 23.7 µM.

And the GI50 [26]?
The GI50 was 4.03 µM.

And the TGI [26]?
The TGI was 16.2 µM.

And the GI50 [27]?
The GI50 was 11.6 µM.

And the TGI [27]?
Its TGI is 23.8 µM.

What about the GI50 [28] of the same molecule?
Its GI50 is 4.68 µM.

What about the TGI [28] of the same molecule?
The TGI was 24.5 µM.

What about the GI50 [29] of the same molecule?
The GI50 was 5.17 µM.

What about the TGI [29] of the same molecule?
The TGI was 19.4 µM.

What about the GI50 [30] of the same molecule?
The GI50 was 8.45 µM.

What about the TGI [30] of the same molecule?
Its TGI is 29.8 µM.

What about the GI50 [31] of the same molecule?
The GI50 was 5.18 µM.

And the TGI [31]?
Its TGI is 24.9 µM.

And the GI50 [32]?
Its GI50 is 11.8 µM.

What about the TGI [32] of the same molecule?
Its TGI is 24.1 µM.

And the GI50 [33]?
The GI50 was 2.07 µM.

And the TGI [33]?
The TGI was 7.1 µM.

And the GI50 [34]?
Its GI50 is 3.75 µM.

And the TGI [34]?
The TGI was 14.4 µM.

And the GI50 [35]?
The GI50 was 15.1 µM.

What about the TGI [35] of the same molecule?
Its TGI is 31.2 µM.

What about the GI50 [36] of the same molecule?
The GI50 was 5.93 µM.

And the TGI [36]?
The TGI was 22.1 µM.

What about the GI50 [37] of the same molecule?
The GI50 was 21.6 µM.

What about the TGI [37] of the same molecule?
The TGI was greater than 100 µM.

What about the GI50 [38] of the same molecule?
Its GI50 is 11.8 µM.

And the TGI [38]?
Its TGI is 25.2 µM.

What about the GI50 [39] of the same molecule?
Its GI50 is 3.75 µM.

What about the TGI [39] of the same molecule?
Its TGI is 20 µM.

What about the GI50 [40] of the same molecule?
Its GI50 is 4.1 µM.

And the TGI [40]?
Its TGI is 20.2 µM.

And the GI50 [41]?
Its GI50 is 2.22 µM.

What about the TGI [41] of the same molecule?
Its TGI is 4.43 µM.

What about the GI50 [42] of the same molecule?
The GI50 was 2.1 µM.

What about the TGI [42] of the same molecule?
The TGI was 7.47 µM.

And the GI50 [43]?
The GI50 was 0.794 µM.

What about the TGI [43] of the same molecule?
The TGI was 11.6 µM.

And the GI50 [44]?
Its GI50 is 7.21 µM.

And the TGI [44]?
Its TGI is 21.7 µM.

What about the GI50 [45] of the same molecule?
Its GI50 is 17.6 µM.

What about the TGI [45] of the same molecule?
Its TGI is 45 µM.

And the GI50 [46]?
Its GI50 is 18.6 µM.

And the TGI [46]?
The TGI was 37.9 µM.

And the GI50 [47]?
Its GI50 is 1.76 µM.

And the TGI [47]?
Its TGI is 8.5 µM.

And the GI50 [48]?
The GI50 was 4.51 µM.

And the TGI [48]?
Its TGI is 18.5 µM.

What about the GI50 [49] of the same molecule?
The GI50 was 4.52 µM.

And the TGI [49]?
Its TGI is 22.7 µM.

And the GI50 [50]?
Its GI50 is 8.97 µM.

And the TGI [50]?
Its TGI is 26.9 µM.

And the GI50 [51]?
Its GI50 is 3.11 µM.

And the TGI [51]?
Its TGI is 13.5 µM.

What about the GI50 [52] of the same molecule?
Its GI50 is 5.04 µM.

What about the TGI [52] of the same molecule?
Its TGI is 25.6 µM.

And the GI50 [53]?
The GI50 was 4.02 µM.

What about the TGI [53] of the same molecule?
The TGI was 19.9 µM.
